# Measurements from patent US20120178147A1, “MICROBIAL CULTURES AND METHODS FOR ANAEROBIC BIOREMEDIATION” (priority 2009, published 2012).
# Where two headings read alike, the source gives them in different places.
# Assays:
# general bacteria = assay: qRT-PCR of general bacteria 16S rRNA genes in DehaloR̂2 cultures; format: cell-based; settings: for General bacteria 16S rRNA gene copies, day 22 / General bacteria 16S rRNA gene copies, initial: DehaloR̂2 with 1.5 μM TCC or 35 μM TCS
# Procedure: Quantitative real-time PCR (qRT-PCR) was performed for enumeration of general 16S rRNA genes and Dehalococcoides 16S rRNA genes in culture DehaloR̂2 and Bio-Dechlor INOCULUM. The primers used for general 16S rRNA genes were Bac1055F (5′-ATG GYT GTC GTC ACCT-3′) and Bac1392R (5′-ACG GGC GGT GTG TAC-3′) (Ritalahti et al., 2006), and the probe was Bac16sTaq (FAM-CAA CGA GCG CAA CCC/3-BHQ-1/). The final volume of PCR reactions was 10 μL, and the final concentration of each chemical in a single reaction tube was: 1× RealMasterMix (Fisher Scientific, Pittsburgh, Pa.), 300 nM Probe, 300 nM each Primer, and 130 nM DNA samples. The PCR conditions were as follows: 2 min at 95° C. followed by 40 cycles of 10 s at 95° C., 20 s at 56° C. and 20 s at 68° C. The primers used for Dehalococcoides 16S rRNA genes were Dhc1200F (5′-CTGGAGCTAATCCCCAAAGCT-3′) and Dhc1271R (5′-CAA CTT CAT GCA GGC GGG-3′), and the probe was Dhc1240Pr (FAM-TCCTCAGTTCGGATTGCAGGC TGAA/3-BHQ-1) (He et al., 2003b). The final volume of PCR reactions was 10 μL, and the final concentration of each chemical in a single reaction tube was: 1× RealMasterMix (Fisher Scientific, Pittsburgh, Pa.), 200 nM Probe, 700 nM each Primer, and 130 nM DNA samples. The PCR conditions were as follows: 2 min at 95° C. followed by 40 cycles of 15 s at 95° C., 20 s at 58° C. and 20 s at 68° C.
# Quantitative Real time PCR (qRT-PCR) was carried out in a spectrofluorimetric thermal cycler (Master cycler, epgradient S, Eppendorf). Calibration curves were performed in triplicate and a linear range of 6 orders of magnitude was obtained. Plasmids containing Dehalococcoides strain BAV1 16S rRNA genes were used as standards to construct general 16S rRNA genes and Dehalococcoides 16S rRNA genes calibration curves. The slopes of the calibration curves for general 16S rRNA genes and Dehalococcoides 16S rRNA genes were −3.46 and −3.94, and the Y intercepts were 38 and 44.2, respectively.
# DNA Extraction and Quantitative Real-Time PCR. The BDI cultures and DehaloR^2 cultures were shaken vigorously first and then 10 ml of the mixed liquid was removed with a sterile syringe and dispensed into 10 1.5 ml micro centrifuge tubes. These micro centrifuge tubes were then centrifuged at 13,000 rpm for 15 min in order to make a pellet, and the pellet was used for DNA extraction. Qiagen DNeasy Blood & Tissue Kit with modifications to enhance lysis was used for DNA isolation from cultures. DNA samples were stored at −20° C.
# Quantitative real-time PCR (qRT-PCR) was performed for enumeration of general 16S rRNA genes and Dehalococcoides 16S rRNA genes in BDI culture without TCC&TCS, BDI culture with 1.5 μM TCC, BDI culture with 35 μM TCS, D DehaloR̂2 culture without TCC&TCS, DehaloR^2 culture with 1.5 μM TCC and DehaloR̂2^2 culture with 35 μM TCS.
# The primers used for general 16S rRNA genes were Bac1055F (5′-ATGGYTGTCGTCAGCT-3′) and Bac1392R (5′-ACGGGCGGTGTGTAC-3′) (Ritalahti et al., 2006), and the probe was Bac16sTaq (FAM-CAACGAGCGCAACCC/3-BHQ-1/). The final volume of PCR reactions was 10 μL, and the final concentration of each chemical in a single reaction tube was: 1× RealMasterMix (Fisher Scientific, Pittsburgh, Pa.), 300 nM Probe, 300 nM each Primer, and 130 nM DNA samples. The PCR conditions were as follows: 2 min at 95° C. followed by 40 cycles of 10 s at 95° C., 20 s at 56° C. and 20 s at 68° C.
# The qRT-PCR was carried out in a spectrofluorimetric thermal cycler (Master cycler, epgradient S, Eppendorf). […]
# [1] = cited from earlier work
# [2] = at 25° C., table values calculated using PBT Profiler and ECOSAR
Structure (SMILES),"General bacteria 16S rRNA gene copies, day 22 (general bacteria)","General bacteria 16S rRNA gene copies, initial (general bacteria)",Water solubility ([1]; at 20° C.) [µg/mL],"Water solubility [1, 2] [µg/mL]","Water solubility ([1]; at 25° C., table values calculated using PBT Profiler and ECOSAR, listed as Triclocarban) [µg/mL]","General bacteria 16S rRNA gene copies, day 22 relative to initial (general bacteria; DehaloR̂2 with 35 μM TCS) [times]","Water solubility ([1]; at 25° C., table values calculated using PBT Profiler and ECOSAR, listed as Triclosan) [µg/mL]"
"O=C(Nc1ccc(Cl)cc1)Nc1ccc(Cl)c(Cl)c1 [TCC, 3-(4-chlorophenyl)-1-(3,4-dichlorphenyl) urea]",1.6×10^8 gene copies/ml,1.3×10^7 gene copies/ml,0.05,0.65,0.65 to 1.55,–,–
"Oc1cc(Cl)ccc1Oc1ccc(Cl)cc1Cl [TCS, 5-chloro-2-[2,4-dichloro-phenoxy]-phenol]",7.5×10^7 gene copies/ml,2.2×10^7 gene copies/ml,<1,4.6,–,3.5,1.97 to 4.62
